# Assay results taken from patent US20260092061A1, “COMPOUNDS FOR TARGETED PROTEIN DEGRADATION” (Amphista Therapeutics Limited, priority 2022, published 2026).
# Molecular target: T1, BRD9 (Homo sapiens, UniProt Q9H8M2)
# T1 sequence (Q9H8M2 1-597): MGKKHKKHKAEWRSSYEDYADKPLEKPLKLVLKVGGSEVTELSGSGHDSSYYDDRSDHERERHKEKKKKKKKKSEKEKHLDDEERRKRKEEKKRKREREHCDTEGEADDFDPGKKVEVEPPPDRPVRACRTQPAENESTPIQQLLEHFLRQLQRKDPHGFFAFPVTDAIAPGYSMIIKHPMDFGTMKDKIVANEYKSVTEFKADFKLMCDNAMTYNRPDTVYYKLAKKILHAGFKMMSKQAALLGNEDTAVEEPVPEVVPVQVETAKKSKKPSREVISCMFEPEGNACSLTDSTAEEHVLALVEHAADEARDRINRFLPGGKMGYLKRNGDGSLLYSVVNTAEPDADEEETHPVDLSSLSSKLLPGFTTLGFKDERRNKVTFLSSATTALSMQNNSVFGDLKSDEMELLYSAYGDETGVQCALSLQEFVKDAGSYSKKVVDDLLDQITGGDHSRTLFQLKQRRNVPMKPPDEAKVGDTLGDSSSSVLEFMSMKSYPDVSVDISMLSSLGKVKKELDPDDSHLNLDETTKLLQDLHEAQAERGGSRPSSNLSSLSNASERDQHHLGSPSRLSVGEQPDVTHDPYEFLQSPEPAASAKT
# Assay: BRD9 degradation, HiBiT-BRD9 KI HEK293 (LgBiT) cells, NanoGlo Lytic Endpoint assay (Assay Protocol 1)
# Format: cell-based
# Conditions: BRD9 degradation; for Dmax at 1 µM / DC50: Table 2, Assay Protocol 1; for Dmax at 1 µM: 1 μM compound at 6 h of treatment, read-out: Assay 1 Dmax; for DC50: 6 h of treatment, read-out: Assay 1 DC50
# Experimental: HiBiT-BRD9 KI HEK293 (LgBiT) Cells (Promega CS3023412) were seeded at 8000 cells per well (38 μL) in sterile white bottom 384 well plates (Invitrogen 164610 or Greiner 781080) and incubated overnight at 37° C. with 5% CO2. The next day, compounds were prepared at 1000× final concentration in DMSO and diluted 1:100 in media (DMEM PAN Biotech P04-03550+10% FBS ATCC 302025). 4 μL compound was added to each well of the cell plate and incubated for 6 h at 37° C. with 5% CO2 BRD9 expression was quantified using the NanoGlo Lytic Endpoint assay (Promega N3050). The lytic buffer was equilibrated to room temperature for 10-15 min before lytic reagent was prepared by adding substrate (1:50) and LgBit protein (1:100) in lytic buffer. 40 μL lytic reagent mix was added to each well of the cel plate and plates were centrifuged briefly at ˜50g. Plates were incubated with shaking (350 RPM) for 12-24 min before reading using the LUM plus module of a BMG Pherastar FSX. Data was analysed using Dotmatics software and % BRD9 remaining was calculated by normalisation to average data from high and low control wells (DMSO treated cels and no cells respectively).
Compound,"Dmax (HEK293, Table 4, determined according to Assay Protocol 1, read-out: Dmax^1) [%]",Dmax at 1 µM (HEK293) [%],DC50 [nM]
"COc1cc(-c2cn(C)c(=O)c(C)c2C)cc(OC)c1CN1CC2CC(C1)N2C(=O)/C(C#N)=C/c1nccs1 (mixture of isomers) [BRD9l, (E/Z)-2-(3-(2,6-dimethoxy-4-(1,4,5-trimethyl-6-oxo-1,6-dihydropyridin-3-yl)benzyl)-3,6-diazabicyclo[3.1.1]heptane-6-carbonyl)-3-(thiazol-2-yl)acrylonitrile]",50 to 70,–,–
"COc1cc(-c2cn(C)c(=O)c3cnccc23)cc(OC)c1CN1CCN(Cc2cccc3c2CCN(C(=O)/C(C#N)=C/c2cccc(Br)n2)C3C)CC1 (mixture of isomers) [Compound A5, (E/Z)-3-(6-bromopyridin-2-yl)-2-(5-((4-(2,6-dimethoxy-4-(2-methyl-1-oxo-1,2-dihydro-2,7-naphthyridin-4-yl)benzyl)piperazin-1-yl)methyl)-1-methyl-1,2,3,4-tetrahydroisoquinoline-2-carbonyl)acrylonitrile]",–,40 to 70,< 1.25
COc1cc(-c2cn(C)c(=O)c3cnccc23)cc(OC)c1CN1CCN(Cc2cccc3c2CCN(C(=O)/C(C#N)=C/c2nc4ccccc4s2)C3C)CC1 (mixture of isomers) [Compound A6],–,> 75,< 1.25
"COc1cc(-c2cn(C)c(=O)c3cnccc23)cc(OC)c1CN1CCN(Cc2cccc3c2CCN(C(=O)/C(C#N)=C\c2nc(C)cs2)C3C)CC1 (mixture of isomers) [Compound A9, (E/Z)-2-(5-((4-(2,6-dimethoxy-4-(2-methyl-1-oxo-1,2-dihydro-2,7-naphthyridin-4-yl)benzyl)piperazin-1-yl)methyl)-1-methyl-1,2,3,4-tetrahydroisoquinoline-2-carbonyl)-3-(4-methylthiazol-2-yl)acrylonitrile]",–,40 to 70,< 1.25
"COc1cc(-c2cn(C)c(=O)c3cnccc23)cc(OC)c1CN1CCN(Cc2cccc3c2CCN(C(=O)/C(C#N)=C\c2ccon2)C3C)CC1 (mixture of isomers) [Compound A11, (E/Z)-2-(5-((4-(2,6-dimethoxy-4-(2-methyl-1-oxo-1,2-dihydro-2,7-naphthyridin-4-yl)benzyl)piperazin-1-yl)methyl)-1-methyl-1,2,3,4-tetrahydroisoquinoline-2-carbonyl)-3-(isoxazol-3-yl)acrylonitrile]",–,40 to 70,1.25 to 10
"COc1cc(-c2cn(C)c(=O)c3cnccc23)cc(OC)c1CN1CCN(Cc2cccc3c2CCN(C(=O)/C(C#N)=C\c2ccc(F)cn2)C3C)CC1 (mixture of isomers) [Compound A12, (E/Z)-2-(5-((4-(2,6-dimethoxy-4-(2-methyl-1-oxo-1,2-dihydro-2,7-naphthyridin-4-yl)benzyl)piperazin-1-yl)methyl)-1-methyl-1,2,3,4-tetrahydroisoquinoline-2-carbonyl)-3-(5-fluoropyridin-2-yl)acrylonitrile]",–,40 to 70,10 to 25
"COc1cc(-c2cn(C)c(=O)c3cnccc23)cc(OC)c1CN1CCN(Cc2cccc3c2CCN(C(=O)/C(C#N)=C\c2nc(C)c(C)s2)C3C)CC1 (mixture of isomers) [Compound A13, (E/Z)-2-(5-((4-(2,6-dimethoxy-4-(2-methyl-1-oxo-1,2-dihydro-2,7-naphthyridin-4-yl)benzyl)piperazin-1-yl)methyl)-1-methyl-1,2,3,4-tetrahydroisoquinoline-2-carbonyl)-3-(4,5-dimethylthiazol-2-yl)acrylonitrile]",–,40 to 70,1.25 to 10
"COc1cc(-c2cn(C)c(=O)c3cnccc23)cc(OC)c1CN1CCN(Cc2cccc3c2CCN(C(=O)/C(C#N)=C\C2CCOCC2)C3C)CC1 (mixture of isomers) [Compound A17, (E/Z)-2-(5-((4-(2,6-dimethoxy-4-(2-methyl-1-oxo-1,2-dihydro-2,7-naphthyridin-4-yl)benzyl)piperazin-1-yl)methyl)-1-methyl-1,2,3,4-tetrahydroisoquinoline-2-carbonyl)-3-(tetrahydro-2H-pyran-4-yl)acrylonitrile]",–,40 to 70,1.25 to 10
"COc1cc(-c2cn(C)c(=O)c3cnccc23)cc(OC)c1CN1CCN(Cc2cccc3c2CCN(C(=O)/C(C#N)=C\C(C)(C)CF)C3C)CC1 (mixture of isomers) [Compound A18, (E/Z)-2-(5-((4-(2,6-dimethoxy-4-(2-methyl-1-oxo-1,2-dihydro-2,7-naphthyridin-4-yl)benzyl)piperazin-1-yl)methyl)-1-methyl-1,2,3,4-tetrahydroisoquinoline-2-carbonyl)-5-fluoro-4,4-dimethylpent-2-enenitrile]",–,40 to 70,< 1.25
"COc1cc(-c2cn(C)c(=O)c3cnccc23)cc(OC)c1CN1CCN(Cc2cccc3c2CCN(C(=O)/C(C#N)=C\C(C)C)C3C)CC1 (mixture of isomers) [Compound A19, (E/Z)-2-(5-((4-(2,6-dimethoxy-4-(2-methyl-1-oxo-1,2-dihydro-2,7-naphthyridin-4-yl)benzyl)piperazin-1-yl)methyl)-1-methyl-1,2,3,4-tetrahydroisoquinoline-2-carbonyl)-4-methylpent-2-enenitrile]",–,40 to 70,1.25 to 10
COc1cc(-c2cn(C)c(=O)c(C)c2C)cc(OC)c1CN1CCN(Cc2cccc3c2CCN(C(=O)/C(C#N)=C/c2nc4ccccc4s2)C3C)CC1 (mixture of isomers) [Compound A20],–,> 75,1.25 to 10
COc1cc(-c2cn(C)c(=O)c(C)c2C)cc(OC)c1CN1CCN(Cc2cccc3c2CCN(C(=O)/C(C#N)=C\c2nc(C)cs2)C3C)CC1 (mixture of isomers) [Compound A21],–,70 to 75,< 1.25
"COc1cc(-c2cn(C)c(=O)c3cnccc23)cc(OC)c1CN1CCN(Cc2cccc3c2CCN(C(=O)/C(C#N)=C\c2ccns2)C3C)CC1 (mixture of isomers) [Compound A23, (E/Z)-2-(5-((4-(2,6-dimethoxy-4-(2-methyl-1-oxo-1,2-dihydro-2,7-naphthyridin-4-yl)benzyl)piperazin-1-yl)methyl)-1-methyl-1,2,3,4-tetrahydroisoquinoline-2-carbonyl)-3-(isothiazol-5-yl)acrylonitrile]",–,40 to 70,1.25 to 10
"COc1cc(-c2cn(C)c(=O)c3cnccc23)cc(OC)c1CN1CCN(Cc2cccc3c2CCN(C(=O)/C(C#N)=C\C2CCC2)C3C)CC1 (mixture of isomers) [Compound A24, (E/Z)-3-cyclobutyl-2-(5-((4-(2,6-dimethoxy-4-(2-methyl-1-oxo-1,2-dihydro-2,7-naphthyridin-4-yl)benzyl)piperazin-1-yl)methyl)-1-methyl-1,2,3,4-tetrahydroisoquinoline-2-carbonyl)acrylonitrile]",–,40 to 70,< 1.25
"COc1cc(-c2cn(C)c(=O)c3cnccc23)cc(OC)c1CN1CCN(Cc2cccc(C3CCCN3C(=O)/C(C#N)=C/c3nccs3)c2)CC1 (mixture of isomers) [Compound A33, (E/Z)-2-(2-(3-((4-(2,6-dimethoxy-4-(2-methyl-1-oxo-1,2-dihydro-2,7-naphthyridin-4-yl)benzyl)piperazin-1-yl)methyl)phenyl)pyrrolidine-1-carbonyl)-3(thiazol-2-yl)acrylonitrile]",–,> 75,< 1.25
"COc1cc(-c2cn(C)c(=O)c3cnccc23)cc(OC)c1CN1CCN(C(=O)c2ccc(C3CCCN3C(=O)/C(C#N)=C/c3nccs3)cc2)CC1 (mixture of isomers) [Compound A34, (E/Z)-2-(2-(4-(4-(2,6-dimethoxy-4-(2-methyl-1-oxo-1,2-dihydro-2,7-naphthyridin-4-yl)benzyl)piperazine-1-carbonyl)phenyl)pyrrolidine-1-carbonyl)-3-(thiazol-2-yl)acrylonitrile]",–,40 to 70,1.25 to 10
"COc1cc(-c2cn(C)c(=O)c3cnccc23)cc(OC)c1CN1CCN(Cc2cccc3c2CCN(C(=O)/C(C#N)=C/c2c(F)cccc2F)C3C)CC1 (mixture of isomers) [Compound A35, (E/Z)-3-(2,6-difluorophenyl)-2-[5-[[4-[[2,6-dimethoxy-4-(2-methyl-1-oxo-2,7-naphthyridin-4-yl)phenyl]methyl]piperazin-1-yl]methyl]-1-methyl-3,4-dihydro-1H-isoquinoline-2-carbonyl]prop-2-enenitrile]",–,40 to 70,1.25 to 10
